Data: patent publication US5935955A, “Pharmaceutical piperazine compounds” (Xenova Limited, priority 1994, dated 1999)

Experiments:
AR 1.0 cells [1] = test: Drug accumulation assay (tritiated daunorubicin); format: cell-based; conditions: Mus musculus, read-out: IC50 accumulation
Procedure: AR 1.0 cells were seeded into 96 well opaque culture plates (Canberra Packard). The assay medium contained a mixture of tritiated Daunorubicin (DNR), a cytotoxic agent, and unlabelled DNR (0.3 μCi/ml; 2 μM). Compounds of formula I were serially diluted in assay medium over a range of concentrations from 5 nM to 100 μM. The cells were incubated at 37° C. for 1 hr before washing and determination of cell associated radioactivity. Results were expressed as % maximum accumulation where 100% accumulation is that observed in the presence of the known RMA verapamil at 100 μM. Where possible an IC50 was determined.

AR 1.0 cells [2] = test: Compound toxicity (proliferation, sulphorhodamine B); format: cell-based; conditions: Mus musculus, 96 h, read-out: Compound toxicity (IC50)
AR 1.0 cells [3] = test: Potentiation of doxorubicin toxicity (fixed doxorubicin 0.86 μM, proliferation, sulphorhodamine B); format: cell-based, mouse
Excerpt: Compounds of formula (I) were examined for their ability to potentiate the toxicity of doxorubicin in AR 1.0 cells.

AR 1.0 cells [4] = test: Potentiation index for doxorubicin (doxorubicin titration with fixed concentration of compound); format: cell-based, mouse; conditions: RMA at 1 μM; doxorubicin, four days
Procedure: The EMT6 mouse mammary carcinoma cell line and the MDR resistant sublime AR 1.0 were cultured in RPMI 1640 medium containing 10% foetal calf serum and 2 mM glutamine at 37° C. in 5% CO2. Cells were passaged between 1 in 200 and 1 in 2000 in the case of the parental cell line and between 1 in 20 and 1 in 200 in the case of the MDR resistant subline, after trypsinisation (0.25% trypsin, 0.2 gl^-1, EDTA).
Cells were cultured for four days with a titration of doxorubicin (0.01 nm-50 μM) in the presence of a fixed concentration of each compound. Proliferation was quantified as described by Skehan et. al, loc cit. The IC50 (concentration required to reduce proliferation to 50% of the untreated controls) for doxorubicin alone and with each compound were derived and used to calculate the potentiation index (PI): [formula]

[5] = daunorubicin 2 μM, 1 hr at 37° C.
[6] = compound alone, AR 1.0 cells, four day incubation
[7] = with doxorubicin 0.86 μM, four day incubation, 5760 min, read-out: Toxicity with cytotoxic agent (IC50)

| IC50 (AR 1.0 cells [1]; [5]) [nM] | Compound | IC50 (AR 1.0 cells [2]; [6]) [µM] | IC50 (AR 1.0 cells [3]; [7]) [nM] | Potentiation index (AR 1.0 cells [4]) | IC50 (AR 1.0 cells [1]; 1 h) [nM] | IC50 (AR 1.0 cells [2]) [µM] | IC50 (AR 1.0 cells [3]; ar 1.0 cells, 96 h) [nM] |
| --- | --- | --- | --- | --- | --- | --- | --- |
| 7000 | Cn1c(=O)/c(=C/c2ccc(C(=O)N3CCN(c4ncccn4)CC3)cc2)[nH]c(=O)/c1=C/c1ccccc1 [Compound 9022, 1-(4-((3Z,6Z)-6-Benzylidene-1-methyl-2,5-dioxo-3-piperazinylidene)methylbenzoyl)-4-(2-pyrimidyl)piperazine] | 35 | 800 | 5 | – | – | – |
| – | COc1cc2c(cc1OC)CN(CCc1ccc(NC(=O)c3cccc(/C=c4\[nH]c(=O)/c(=C/c5ccccc5)n(C)c4=O)c3)cc1)CC2.Cl [Compound 9051, N-(4-(2-(6,7-Dimethoxy-1,2,3,4-tetrahydro-2-isoquinolyl)ethyl)phenyl)-3-((3Z,6Z)-6-benzylidene-1-methyl-2,5-dioxo-3-piperazinylidene)methylbenzamide, hydrochloride] | – | 10 | 2000 | 150 | 2 | – |
| 300 | COc1cc2c(cc1OC)CN(Cc1ccc(NC(=O)c3ccc(/C=c4\[nH]c(=O)/c(=C/c5ccccc5)n(C)c4=O)cc3)cc1)CC2.Cl [Compound 9064, N-(4-(6,7-Dimethoxy-1,2,3,4-tetrahydro-2-isoquinolyl)methylphenyl)-4-((3Z,6Z)-6-benzylidene-1-methyl-2,5-dioxo-3-piperazinylidene)methylbenzamide, hydrochloride] | 2 | 10 | 750 | – | – | – |
| 6000 | COc1ccc(N2CCN(C(=O)c3ccc(/C=c4\[nH]c(=O)/c(=C/c5ccccc5)n(C)c4=O)cc3)CC2)cc1.Cl [Compound 9071, 1-(4-((3Z,6Z)-6-Benzylidene-1-methyl-2,5-dioxo-3-piperazinylidene)methylbenzoyl)-4-(4-methoxyphenyl)piperazine, hydrochloride] | 6 | 200 | 4 | – | – | – |
| 5000 | Cl.Cn1c(=O)/c(=C/c2ccc(C(=O)Nc3ccc(CN4CCN(c5ccccc5)CC4)cc3)cc2)[nH]c(=O)/c1=C/c1ccccc1 [Compound 9104, N-(4-(4-Phenyl-1-piperazinyl)methylphenyl)-4-((3Z,6Z)-6-benzylidene-1-methyl-2,5-dioxo-3-piperazinylidene)methylbenzamide, hydrochloride] | 40 | – | 17 | – | – | – |
| 900 | COc1cc2c(cc1OC)CN(CCNC(=O)c1cccc(/C=c3\[nH]c(=O)/c(=C/c4ccccc4)n(C)c3=O)c1)CC2 [Compound 9136, N-(2-(6,7-Dimethoxy-1,2,3,4-tetrahydro-2-isoquinolyl)ethyl)-3-((3Z,6Z)-6-benzylidene-1-methyl-2,5-dioxo-3-piperazinylidene)methylbenzamide] | 13 | 2000 | 25 | – | – | – |
| 800 | COc1ccc(CCN(C)CCc2ccc(NC(=O)c3cccc(/C=c4\[nH]c(=O)/c(=C/c5ccccc5)n(C)c4=O)c3)cc2)cc1OC [Compound 9138] | 8 | 1000 | 333 | – | – | – |
| 2000 | CN(CCNC(=O)c1cccc(/C=c2\[nH]c(=O)/c(=C/c3ccccc3)n(C)c2=O)c1)CC(c1ccccc1)c1ccccc1 [Compound 9163, N-(2-(2,2-Diphenylethyl)methylaminoethyl)-3-((3Z,6Z)-6-benzylidene-1-methyl-2,5-dioxo-3-piperazinylidene)methylbenzamide] | 10 | 500 | 6.7 | – | – | – |

| Compound | IC50 (AR 1.0 cells [1]; [5]) [nM] | IC50 (AR 1.0 cells [2]; [6]) [µM] | IC50 (AR 1.0 cells [3]; [7]) [nM] | Potentiation index (AR 1.0 cells [4]) | IC50 (AR 1.0 cells [1]; 1 h) [nM] | IC50 (AR 1.0 cells [2]) [µM] | IC50 (AR 1.0 cells [3]; ar 1.0 cells, 96 h) [nM] |
| --- | --- | --- | --- | --- | --- | --- | --- |
| Cn1c(=O)/c(=C/c2ccc(C(=O)Nc3ccc(CCN4CCC(O)(c5ccc(Cl)cc5)CC4)cc3)cc2)[nH]c(=O)/c1=C/c1ccccc1 [Compound 9079, N-(4-(2-(4-(4-Chlorophenyl) -4-hydroxypiperidino)ethyl)phenyl)-4-((3Z,6Z)-6-benzylidene-1-methyl-2,5-dioxo-3-piperazinylidene)methylbenzamide] | 80000 | 2 | – | 3 | – | – | 1700 |
